Assay [1] has as its target T1, GST-LXRβ ligand-binding domain (Homo sapiens, UniProt P55055, DUP175-175).
T1 construct: amino acids 156-461; NP009052; made in house; host or cells: E. coli
T1 sequence (P55055 with tags, fused parts or gaps DUP175-175): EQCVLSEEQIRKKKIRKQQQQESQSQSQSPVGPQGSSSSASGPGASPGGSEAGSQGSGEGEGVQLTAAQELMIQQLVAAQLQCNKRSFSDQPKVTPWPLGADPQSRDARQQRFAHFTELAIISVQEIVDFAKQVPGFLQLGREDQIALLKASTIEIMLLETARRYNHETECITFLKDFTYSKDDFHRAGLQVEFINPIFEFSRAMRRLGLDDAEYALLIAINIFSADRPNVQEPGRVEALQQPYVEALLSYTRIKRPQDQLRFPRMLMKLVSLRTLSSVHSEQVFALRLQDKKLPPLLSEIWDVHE
Description: TR-FRETβ activity assay (LXRβ-LBD / NCoA3 coactivator peptide, prestimulated with 24(S)-25-epoxycholesterol). The format is biochemical. Also on record: key to behavior in FRET assay: ag=agonist; ia=inverse agonist. Conditions: for EC50: 1 μM 24(S)-25-epoxycholesterol as prestimulating agonist, read-out: FRETβ activity range (EC50); for behavior in FRET assay: agonist or inverse agonist. The method, then:
The tested compounds were usually dissolved, tested and stored as 20 mM stock solutions in DMSO. […] Sulfonyl acetic acid derivatives are shelf stable as solid at rt for long time as reported by Griesbrecht et al. (Synlett 2010:374) or Faucher et al. (J. Med. Chem. 2004; 47:18). TR-FRETβ Activity Assay Recombinant GST-LXRβ ligand-binding domain (LBD; amino acids 156-461; NP009052; SEQ ID NO:2) was expressed in E. coli and purified via gluthatione-sepharose affinity chromatography. N-terminally biotinylated NCoA3 coactivator peptide (SEQ ID NO:1) was chemically synthesized (Eurogentec). […] Finally, a detection mix was added containing anti GST-Tb cryptate (CisBio; 610SAXLB) and Streptavidin-XL665 (CisBio; 610SAXLB) as fluorescent donor and acceptor, respectively, as well as the coactivator peptide and LXRβ-LBD protein (SEQ ID NO:2). The reaction was mixed thoroughly, equilibrated for 1 h at 4° C. and vicinity of LXRβ and coactivator peptide was detected by measurement of fluorescence in a VictorX4 multiplate reader (PerkinElmer Life Science) using 340 nm as excitation and 615 and 665 nm as emission wavelengths. Assays were performed in triplicates. Final Assay Concentrations of Components: 240 mM KCl, 1 μg/μL BSA, 0.002% Triton-X-100, […] anti GST-Tb cryptate, 2.5 ng/μL Streptavidin-XL665, coactivator peptide (400 nM), LXRβ protein ([…], i.e. 76 nM)

Another assay concerns the target T2, LXRα full length (FL) (Homo sapiens, UniProt Q13133).
T2 construct: the full length (FL) proteins of LXRα (amino acids 1-447); NP005684; expressed in transfected cells; host or cells: HEK293
T2 sequence (Q13133 1-447): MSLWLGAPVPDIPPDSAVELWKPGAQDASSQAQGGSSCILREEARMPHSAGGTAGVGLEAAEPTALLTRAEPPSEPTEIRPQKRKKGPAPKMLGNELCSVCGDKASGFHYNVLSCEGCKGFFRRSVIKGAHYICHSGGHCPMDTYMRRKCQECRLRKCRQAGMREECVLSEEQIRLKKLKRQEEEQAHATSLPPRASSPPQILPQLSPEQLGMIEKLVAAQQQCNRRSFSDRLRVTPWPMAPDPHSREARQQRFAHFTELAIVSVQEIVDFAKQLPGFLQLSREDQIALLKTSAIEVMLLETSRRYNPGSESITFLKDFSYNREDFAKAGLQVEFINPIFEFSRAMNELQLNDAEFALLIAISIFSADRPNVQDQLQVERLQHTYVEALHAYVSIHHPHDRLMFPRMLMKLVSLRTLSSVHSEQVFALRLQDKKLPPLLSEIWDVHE
Description: LXR Gal4 reporter transient transfection assay (M2H), Gal4α FL. The format is cell-based. Conditions: HEK293 cells; read-out: M2H Gal4α FL activity range (EC50). The method, then:
(§1) The tested compounds were usually dissolved, tested and stored as 20 mM stock solutions in DMSO. Since sulfonyl acetic acid derivatives tend to decarboxylate under these conditions, these stock solutions were prepared, tested and stored as 20 mM DMSO stock solutions containing 100 mM trifluoroacetic acid (5 equivalents). Sulfonyl acetic acid derivatives are shelf stable as solid at rt for long time as reported by Griesbrecht et al. (Synlett 2010:374) or Faucher et al. (J. Med. Chem. 2004; 47:18).
(§2) LXR Gal4 Reporter Transient Transfection Assays
(§3) LXRα and LXRβ activity status was determined via detection of interaction with coactivator and corepressor proteins in mammalian two-hybrid experiments (M2H). For this, via transient transfection the full length (FL) proteins of LXRα (amino acids 1-447; NP005684; SEQ ID NO:7) or LXRβ-(amino acids 1-461; NP009052; SEQ ID NO:8) or the ligand-binding domains (LBD) of LXRα (amino acids 155-447 SEQ ID NO:3) or LXRβ (amino acids 156-461; SEQ ID NO:4) were expressed from pCMV-AD (Stratagene) as fusions to the transcriptional activation domain of NFkB. As cofactors, domains of either the steroid receptor coactivator 1 (SRC1; amino acids 552-887; SEQ ID NO:5) or of the corepressor NCoR (amino acids 1903-2312 SEQ ID NO:6) were expressed as fusions to the DNA binding domain of the yeast transcription factor GAL4 (from pCMV-BD; Stratagene). Interaction was monitored via activation of a coexpressed Firefly Luciferase Reporter gene under control of a promoter containing repetitive GAL4 response elements (vector pFRLuc; Stratagene). Transfection efficiency was controlled via cotransfection of constitutively active pRL-CMV Renilla reniformis luciferase reporter (Promega). HEK293 cells were grown in minimum essential medium (MEM) with 2 mM L-glutamine and Earle's balanced salt solution supplemented with 8.3% fetal bovine serum, 0.1 mM non-essential amino acids, 1 mM sodium pyruvate, at 37° C. in 5% CO2. 3.5×10^4 cells/well were plated in 96-well cell culture plates in growth medium supplemented with 8.3% fetal bovine serum for 16-20 h to ˜90% confluency. For transfection, medium was taken off and LXR and cofactor expressing plasmids as well as the reporter plasmids are added in 30 μL OPTIMEM/well including polyethylene-imine (PEI) as vehicle. Typical amounts of plasmids transfected/well: pCMV-AD-LXR (5 ng), pCMV-BD-cofactor (5 ng), pFR-Luc (100 ng), pRL-CMV (0.5 ng). Compound stocks were prepared in DMSO, prediluted in MEM to a total volume of 120 μL, and added 4 h after addition of the transfection mixture (final vehicle concentration not exceeding 0.2%). Cells were incubated for additional 16 h, lysed for 10 min in 1× Passive Lysis Buffer (Promega) and Firefly and Renilla luciferase activities were measured sequentially in the same cell extract using buffers containing D-luciferine and coelenterazine, respectively. Measurements of luminescence were done in a BMG-Iuminometer.

The next assay addresses T3, LXRβ full length (FL) (Homo sapiens, UniProt P55055, DUP175-175).
T3 construct: the full length (FL) proteins of LXRα (amino acids 1-447); NP005684; NP009052; expressed in transfected cells; host or cells: HEK293
T3 sequence (P55055 with tags, fused parts or gaps DUP175-175): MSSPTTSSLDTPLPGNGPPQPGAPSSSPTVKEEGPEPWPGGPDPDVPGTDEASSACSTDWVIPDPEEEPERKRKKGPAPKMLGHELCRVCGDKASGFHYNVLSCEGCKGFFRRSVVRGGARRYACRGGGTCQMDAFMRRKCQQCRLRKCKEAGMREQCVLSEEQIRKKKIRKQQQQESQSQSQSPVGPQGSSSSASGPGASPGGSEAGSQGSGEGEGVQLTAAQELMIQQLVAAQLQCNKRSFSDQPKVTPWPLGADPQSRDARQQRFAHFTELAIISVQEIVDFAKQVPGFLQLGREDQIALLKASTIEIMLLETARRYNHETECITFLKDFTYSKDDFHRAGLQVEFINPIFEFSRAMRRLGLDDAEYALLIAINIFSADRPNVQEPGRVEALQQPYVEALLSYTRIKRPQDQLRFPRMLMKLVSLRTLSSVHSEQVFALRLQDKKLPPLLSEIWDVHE
Description: LXR Gal4 reporter transient transfection assay (M2H), Gal4β FL. The format is cell-based. Conditions: HEK293 cells; read-out: M2H Gal4β FL activity range (EC50). As for the experimental part: as §1, §2, §3

Usually EC50 stands for the midpoint of the concentration-response curve.

Turning to `Cc1cc(C)c(S(=O)(=O)N(Cc2ccc(-c3cccc(S(=O)(=O)CC(=O)O)c3)cc2)Cc2ccc(C)o2)c(C)c1` [5/5], the EC50 in assay [1] was above 10 µM; on LXRα full length (FL), 1 to 10 µM; at LXRβ full length (FL), 0.1 to 1 µM. In assay [1], the “behavior in FRET assay” value was “ia”.
With `Cc1cc(F)cc(C)c1S(=O)(=O)N(Cc1ccc(-c2cccc(S(=O)(=O)CC(=O)O)c2)cc1)Cc1ccc(C(F)(F)F)o1` [10/2], the EC50 was 1 to 10 µM in assay [1], 1 to 10 µM at LXRα full length (FL) and 0.1 to 1 µM at LXRβ full length (FL). In addition, the “behavior in FRET assay” value in assay [1] was “ia”.
For `O=C(O)CS(=O)(=O)c1cccc(-c2ccc(CN(Cc3ccc(C(F)(F)F)o3)S(=O)(=O)c3c(Cl)cccc3C(F)(F)F)cc2)c1` [10/3], the EC50 lay within 1 to 10 µM in assay [1], 1 to 10 µM on LXRα full length (FL) and 0.1 to 1 µM on LXRβ full length (FL). Also, the “behavior in FRET assay” value in assay [1] is recorded as “ag”.
Turning to `Cc1cc(C)c(S(=O)(=O)N(Cc2ccc(C(F)(F)F)o2)Cc2sc(-c3cccc(C(C)(C)C(=O)O)c3)cc2Cl)c(C)c1` [10/6], the EC50 in assay [1] was 1 to 10 µM; at LXRα full length (FL) it was 0.1 to 1 µM; on LXRβ full length (FL) it was below 0.1 µM. Moreover, in assay [1], the “behavior in FRET assay” value is “ag”.
In the case of `Cc1cc(C)c(S(=O)(=O)N(Cc2ccc(-c3cccc(C(C)(C)C(=O)O)c3)cc2)c2ccc(C(F)(F)F)o2)c(C)c1` [10/7], the EC50 in assay [1] was 0.1 to 1 µM; on LXRα full length (FL), 0.1 to 1 µM; at LXRβ full length (FL), below 0.1 µM. Further, the “behavior in FRET assay” value in assay [1] is “ag”.
Consider `COc1cc(C)cc(C)c1S(=O)(=O)N(Cc1ccc(-c2cccc(S(=O)(=O)CC(=O)O)c2)cc1)Cc1ccc(C(F)(F)F)o1` [10/8], for which the half-maximal effective concentration (EC50) (in assay [1]; at LXRα full length (FL); at LXRβ full length (FL)) was 1 to 10 µM throughout. In assay [1], the “behavior in FRET assay” value was “ag”.
Consider `O=C(O)CS(=O)(=O)c1cccc(-c2ccc(CN(Cc3ccc(C(F)(F)F)o3)S(=O)(=O)c3cccc4ccccc34)cc2)c1` [10/9], for which the results for the EC50 (in assay [1]; at LXRα full length (FL); at LXRβ full length (FL)) were 1 to 10 µM, 1 to 10 µM and 0.1 to 1 µM, respectively. The “behavior in FRET assay” value in assay [1] is on record as “ia”.
Regarding `COc1ccc(S(=O)(=O)N(Cc2ccc(-c3cccc(S(=O)(=O)CC(=O)O)c3)cc2)Cc2ccc(C(F)(F)F)o2)c2c1CCCC2` [10/10], the EC50 in assay [1] was 1 to 10 µM; on LXRα full length (FL) it was 0.1 to 1 µM; at LXRβ full length (FL), 0.1 to 1 µM. For the same molecule, in assay [1], the “behavior in FRET assay” value is listed as “ia”.
Consider `Cc1ccc2cccnc2c1S(=O)(=O)N(Cc1ccc(-c2cccc(S(=O)(=O)CC(=O)O)c2)cc1)Cc1ccc(C(F)(F)F)o1` [10/11], for which the EC50 was 1 to 10 µM in assay [1], 1 to 10 µM on LXRα full length (FL) and 0.1 to 1 µM at LXRβ full length (FL). For the same molecule, the “behavior in FRET assay” value in assay [1] is recorded as “ag”.
Regarding `Cc1ccc(S(=O)(=O)N(Cc2ccc(-c3cccc(S(=O)(=O)CC(=O)O)c3)cc2)Cc2ccc(C(F)(F)F)o2)c(C)c1` [10/12], the results for the EC50 (in assay [1]; at LXRα full length (FL); on LXRβ full length (FL)) were 1 to 10 µM, 1 to 10 µM and 0.1 to 1 µM, respectively. The “behavior in FRET assay” value in assay [1] is “ia”.
For `Cc1cc(C)c(S(=O)(=O)N(Cc2ccc(-c3cccc(S(=O)(=O)CC(=O)O)c3)cc2)Cc2ccc(C(F)F)o2)c(C)c1` [10/13], the EC50 is 1 to 10 µM in assay [1], 1 to 10 µM on LXRα full length (FL) and 0.1 to 1 µM on LXRβ full length (FL). The “behavior in FRET assay” value in assay [1] is “ia”.
As for `Cc1ccc2ccccc2c1S(=O)(=O)N(Cc1ccc(C(F)(F)F)o1)C1COc2cc(-c3cccc(C(C)(C)C(=O)O)c3)ccc21` (stereo not shown) [10/14], the figures for the EC50 (in assay [1]; at LXRα full length (FL); on LXRβ full length (FL)) were 0.1 to 1 µM, below 0.1 µM and below 0.1 µM, respectively. Further, the “behavior in FRET assay” value in assay [1] is “ia”.
For `Cc1ccc2ncccc2c1S(=O)(=O)N(Cc1ccc(-c2cccc(C(C)(C)C(=O)O)c2)cc1)Cc1ccc(C(F)(F)F)o1` [10/15], the EC50 (in assay [1]; at LXRα full length (FL); on LXRβ full length (FL)) was below 0.1 µM throughout. In addition, the “behavior in FRET assay” value in assay [1] was “ia”.

(Values after patent US20200115357A1, “LIVER X RECEPTORS (LXR) MODULATORS” (Phenex-FXR GmbH, priority 2017, published 2020).)
